{
  "source": "paper PMC6959544",
  "about": "(Bioorganic & medicinal chemistry, 2017)",
  "key": {"[1]": {"target": "hTRPV1 (Homo sapiens, UniProt Q8NER1)", "sequence (Q8NER1 whole entry)": "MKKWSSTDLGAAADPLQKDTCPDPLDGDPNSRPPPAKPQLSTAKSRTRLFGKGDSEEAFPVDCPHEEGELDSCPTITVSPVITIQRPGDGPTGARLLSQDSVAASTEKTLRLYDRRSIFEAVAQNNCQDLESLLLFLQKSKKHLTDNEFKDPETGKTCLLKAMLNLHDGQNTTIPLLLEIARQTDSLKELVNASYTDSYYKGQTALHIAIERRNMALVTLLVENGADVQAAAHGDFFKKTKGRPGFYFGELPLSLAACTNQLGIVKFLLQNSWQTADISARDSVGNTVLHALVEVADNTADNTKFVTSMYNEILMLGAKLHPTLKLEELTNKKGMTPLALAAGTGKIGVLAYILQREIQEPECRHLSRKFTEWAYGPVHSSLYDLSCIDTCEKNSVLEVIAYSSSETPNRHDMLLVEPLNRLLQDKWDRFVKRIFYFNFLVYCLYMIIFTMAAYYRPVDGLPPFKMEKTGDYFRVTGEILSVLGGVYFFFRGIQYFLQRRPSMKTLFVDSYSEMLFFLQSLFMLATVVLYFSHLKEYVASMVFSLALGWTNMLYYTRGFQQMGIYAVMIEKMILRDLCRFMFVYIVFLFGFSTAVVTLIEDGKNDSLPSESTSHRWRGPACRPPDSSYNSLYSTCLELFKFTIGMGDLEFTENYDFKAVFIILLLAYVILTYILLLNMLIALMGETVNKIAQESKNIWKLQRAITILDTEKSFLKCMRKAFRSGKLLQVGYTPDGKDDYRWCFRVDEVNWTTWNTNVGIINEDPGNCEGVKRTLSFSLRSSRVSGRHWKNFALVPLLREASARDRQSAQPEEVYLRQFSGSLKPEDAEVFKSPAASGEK", "assay": "In vitro hTRPV1 antagonism: inhibition of activation by capsaicin", "type": "cell-based", "conditions": "hTRPV1 in CHO cells, capsaicin 100 nM, FLIPR"}, "[2]": {"tested_on": "CCI-induced cold allodynia (Bennett mouse model of neuropathic pain)", "assay": "Analgesic activity on CCI-induced cold allodynia", "type": "in vivo", "conditions": "oral"}, "[3]": {"tested_on": "capsaicin-induced hypothermia", "assay": "Capsaicin-induced hypothermia", "type": "in vivo", "conditions": "data not shown"}},
  "data": [
    {"compound": "CC(C(=O)NCc1ccc(C(C)(C)C)nc1OCc1ccc(F)cc1)c1ccc(NS(C)(=O)=O)c(F)c1", "note": "(centres unmarked) [Compound 23, N-((6-(tert-Butyl)-2-((4-fluorobenzyl)oxy)pyridin-3-yl)methyl)-2-(3-fluoro-4-(methylsulfonamido)phenyl)propanamide]", "values": [
      {"measurement": "hTRPV1 antagonism (in words)", "setting": "[1]", "value": "good antagonism"}
    ]},
    {"compound": "C[C@H](C(=O)NCc1ccc(C(C)(C)C)nc1SC1CCCCC1)c1ccc(NS(C)(=O)=O)c(F)c1", "note": "[Compound 34S]", "values": [
      {"measurement": "antiallodynic effect on cold allodynia, % MPE", "setting": "[2]; 3 mg/kg", "value": "greater than 50 % MPE"},
      {"measurement": "in vivo functional character (in words)", "setting": "[2]; 10 mg/kg", "value": "partial agonism"},
      {"measurement": "antiallodynic activity (in words)", "setting": "[2]; dose increased from 3 mg/kg to 10 mg/kg", "value": "decreased antiallodynic activity"},
      {"measurement": "capsaicin-induced hypothermia, % MPE", "setting": "[3]; 3 mg/kg po", "value": 46, "unit": "% MPE"},
      {"measurement": "capsaicin-induced hypothermia, % MPE", "setting": "[3]; 10 mg/kg po", "value": 15, "unit": "% MPE"}
    ]},
    {"compound": "N-((6-(tert-Butyl)-2-(cyclohexyloxy)pyridin-3-yl)methyl)-2-(3-fluoro-4-(methylsulfonamido)phenyl)propanamide [Compound 21]", "values": [
      {"measurement": "hTRPV1 antagonism (in words)", "setting": "[1]", "value": "clear reduction in potency"}
    ]},
    {"compound": "N-((6-(tert-Butyl)-2-(cyclopentyloxy)pyridin-3-yl)methyl)-2-(3-fluoro-4-(methylsulfonamido)phenyl)propanamide [Compound 20]", "values": [
      {"measurement": "hTRPV1 antagonism (in words)", "setting": "[1]", "value": "clear reduction in potency"}
    ]}
  ]
}
